The values below come from patent US11440939B2, “Anticancer peptides” (IDP DISCOVERY PHARMA, S.L., priority 2017, dated 2022).

Numbered stars: 1 amine (or outer) side, 2 acyl side, 3 side chain; on linkers, the order of the positions; unused ones are H or OH. Bridge positions count the residues as written; N and C are the ends. Square brackets hold non-standard residues; d marks the D form. Peptide text beside a SMILES is read from it. ξ: configuration not given here. ξαMeNle(6-ylidene) = CC(CCCC=[*:3])(N[*:1])C(=O)[*:2]; X1 = CC(CCCCCCC=[*:3])(N[*:1])C(=O)[*:2]

Holding throughout (assay type): cell-based
The subject of series [1] is NCI-H187. Particulars: 72 h. The protocol:
NCI-H187, epithelial (small cell lung cancer, SCLC), ATCC-CRL-5804;
Cell line MCF-7 was cultured in incubator under CO2 (6%) at 37° C. in DMEM high glucose (Dulbecco's Modified Eagle Solution, Gibco-BRL 31966-21) medium with 10% fetal bovine serum inactivated (FBS) (Gibco-BRL 10106-169). Cell lines HL-60, NCI-H524, NCI-H526, NCI-H69, NCI-H82, NCI-H187 and H5B were cultured in an incubator at 37° C. in RPMI-1640 (Sigma R8758) medium with 10% of fetal bovine serum inactivated (FBS) and 2 mM glutamine (Sigma G7513). Cell line NCI-H510A was cultured in incubator in F12K medium with 10% of fetal bovine serum inactivated (FBS). Cell line GBM-18 and GBM-27 were cultured in incubator under CO2 (6%) at 37° C. in complete medium (Neurobasal+B27+Glutamax+Growth factors).
During the amplification step and the assays, adherent cells were rinsed with DPBS (Dulbecco's Phosphate Buffered Saline, Sigma D1283) three times and afterward treated for 5 minutes with trypsin ([…]) (Gibco-BRL, 15400054) in solution of DPBS at 37° C., and, once detached, transferred in the culturing medium. No-adherent cells were centrifuged and transferred in the culturing medium. Cells were counted in a Neubauer chamber after labelling with Tripan-Blue.
MCF-7, NCI-H187, NCI-H69, NCI-H526 and H5B cells were seeded at a density of 5000 cells/well; NCI-H524 and NCI-H82 were seeded at a density of 2500 cells/well; HL-60 and NCI-H510A at 10000 cells/well in 100 μl of medium in 96 well plates. After 24 h, the compounds to be tested were added to calculate the dose/response curve at the starting concentration of 100 μM with serial dilutions (1:1). Controls were the untreated cells. Each experiment was performed in triplicate.
(§1) Cells were incubated during 72 h in incubator under CO2 atmosphere at 37° C. Cell viability was measured by means of MTT (3-(4,5-dimethylthiazol-2-yl)-2,5-diphenyltetrazolium bromide) assay, Alamar Blue® (Biosource DAL1100) and Hexosaminidase activity test, consecutively, following manufacturer instructions.
MTT: 1. Stock solution of MTT (475989 Calbiochem) was 5 mg/ml in PBS 1×. As negative control (experiment noise) 3 wells were treated with 20 μl/well of a solution of SDS 10% in H2O. The same control was used for Alamar Blue/Hexosaminidase. 10 μl/well of MTT solution were added and the plate was incubated for 3-4 hr. The medium was discarded and 100 μl of extracting buffer (PBS 1×, 15% SDS, 50% […] N,N-Dimethylformamide, pH 4,7) were added to each well. Plates were incubated for 16 h at room temperature under orbital shaking. Absorbance at 570 nm was finally measured.
Alamar Blue: 10 μl Alamar Blue solution was added to each well and the plates were incubated for […] in the incubator. Fluorescence ratio at 535/590 (excitation/emission) was measured in Cytofluor (Millipore) fluorimeter. Blank control was determined by lysis of untreated cells with con 2% of Triton X100, right before adding Alamar Blue solution.
Hexosaminidase activity test: after Alamar Blue lecture, medium was discarded and plates were rinsed once with PBS. 60 μl hexosaminidase substrate (p-nitrophenol-N-acetyl-beta-D-glucosamide 7.5 mM [Sigma N-9376], sodium citrate 0.1 M, pH 5.0, 0.25% Triton X-100) was added to each well and the plates were incubated at 37° C. for 2-5 h, according to the cell type (hexosaminidase activity changes according to the cell type). […] Blank control was the same as described before.
Data analysis was performed calculating the percentage of cell viability normalized vs. the values of negative control, which was considered equal to 100%. The dose/response curve was fitted through the sigmoidal equation dose-response (variable slope) and the EC50 values were calculated as follow: Y=Bottom+(Top−Bottom)/(1+10^{[(Log EC50−X)*HillSlope]},

The subject of series [2] is MCF-7. How it is done:
MCF-7, epithelial (breast cancer), ECACC: 86012803;
(§2) Cell line MCF-7 was cultured in incubator under CO2 (6%) at 37° C. in DMEM high glucose (Dulbecco's Modified Eagle Solution, Gibco-BRL 31966-21) medium with 10% fetal bovine serum inactivated (FBS) (Gibco-BRL 10106-169). Cell lines HL-60, NCI-H524, NCI-H526, NCI-H69, NCI-H82, NCI-H187 and H5B were cultured in an incubator at 37° C. in RPMI-1640 (Sigma R8758) medium with 10% of fetal bovine serum inactivated (FBS) and 2 mM glutamine (Sigma G7513). Cell line NCI-H510A was cultured in incubator in F12K medium with 10% of fetal bovine serum inactivated (FBS). […]
(§3) During the amplification step and the assays, adherent cells were rinsed with DPBS (Dulbecco's Phosphate Buffered Saline, Sigma D1283) three times and afterward treated for 5 minutes with trypsin ([…]) (Gibco-BRL, 15400054) in solution of DPBS at 37° C., and, once detached, transferred in the culturing medium. […] Cells were counted in a Neubauer chamber after labelling with Tripan-Blue. […]
as §1
(§4) MTT: 1. […] Absorbance at 570 nm was finally measured. […]

In series [3] the test system is NCI-H69. Particulars: 72 h. How it is done: NCI-69, (small cell lung cancer, SCLC), ATCC-HTB-119;
as §2, §3, §1, §4

Series [4] in a line: Hepatotoxicity assay, trypan blue exclusion, 24 h. The following applies: female, primary human hepatocytes, human hepatocytes, 24 h. The text has this:
(§5) NCI-510A, epithelial (small cell lung cancer, SCLC), ATCC-HBT-124; and Hepatocytes (normal liver), from a donor was provided by Foundation DTI-Donation & Transplantation Institute from surgical wastes and from organs not suitable for transplantation
(§6) Human liver from a donor was subjected to hepatocyte isolation by using a two-step tissue microperfusion technique taking maximum care to avoid anoxia before cannulation, since hepatocytes are cells highly sensitive to oxygen levels. An initial anoxic state could result in a low viability of the cells, and will later affect their metabolic capacity in the culture. Briefly, liver tissue was cannulated by using the accessible vessels with a 1 mm-diameter needle. A balanced salt solution was injected to clean the organ by using a peristaltic pump adjusted to a flow rate of 18-20 ml/min. After washing, a solution containing collagenase was added for liver disintegration. The cell suspension obtained using this process was filtered and centrifuged and, after a couple of washings to remove collagenase, cells were re-suspended in culture medium Ham's F-12/William (1:1) medium supplemented with 2 mM glutamine, […] sodium selenite, 2% newborn calf serum, 50 mU/ml penicillin, 50 μg/ml streptomycin, 0.1% bovine serum albumin, 1.68 mM NAME, 26 mM sodium bicarbonate, 25 μg/ml transferrin, 65.5 μM ethanolamine, 7.2 μM linoleic acid, 17.5 mM glucose, 6.14 mM ascorbic acid and 10 nM insulin.
(§7) After resuspension, a cell aliquot was removed and viability was determined by cell counting using the trypan blue exclusion method. Trypan blue uptake is the result of cell membrane alteration and in consequence of cell death. Thus, to quantify cell viability, 0.4% trypan blue in saline was added to the cells and these were immediately loaded in a Neubauer chamber. Viable cells were counted in 5 different fields under the optical microscope as non-blue cells. % Viability=Number of non-blue cells×100/Number of total cells Viability and Hepatoxicity Assay
(§8) Human hepatocytes isolated and re-suspended as described before were seeded at 100,000 viable cells/well on 96 collagen-coated plates in order to assess compound's cytotoxicity. After 1 hour in culture, medium was renewed to eliminate cell debris. Cultured human hepatocytes were allowed to stay in culture for 24 hours prior performing the experiments. After 24 h, the compounds to be tested were added to calculate the dose/response curve at the starting concentration of 400 μM with serial dilutions. Each experiment was performed in triplicate. Cells were incubated during 24 h in incubator under CO2 atmosphere at 37° C.
(§9) The viability was determined by cell counting using the trypan blue exclusion method. % Viability=Number of non-blue cells×100/Number of total cells Statistics

For series [5], the system named is Human hepatocytes. Briefly: Hepatotoxicity assay, trypan blue exclusion, 24 h. The following applies: dose of 4 and 14 μM.
From the text: as §5, §6, §7, §8, §9

In the case of `CC(C)C[C@H](NC(=O)[C@H](CCCCN)NC(=O)[C@@H](NC(=O)[C@@H](N)CCCNC(=N)N)C(C)C)C(=O)N[C@H](C(=O)N[C@@H](CC(N)=O)C(=O)N[C@@H](CC(C)C)C(=O)NC1(C)CCCCCCC=CCCCC(C)(C(=O)N[C@H](C(=O)N2CCC[C@H]2C(N)=O)C(C)C)NC(=O)[C@H](CCC(=O)O)NC(=O)[C@H](CCCNC(=N)N)NC(=O)[C@H](CC(C)C)NC(=O)[C@H]([C@@H](C)O)NC(=O)[C@H](C)NC(=O)[C@H](Cc2ccccc2)NC1=O)C(C)C` (stereo partly drawn) [H14] (H-RVKLVNL[X1]FATLRE[ξαMeNle(6-ylidene)]VP-NH2; staple 8-15; N-terminus and C-terminus assumed), the half-maximal effective concentration (EC50) is about 10 µM in series [1], about 9 µM in series [2] and about 7 µM in series [3]. Also, in series [4] (H14 4 μM), the viability at 24 h, 4 µM was determined as 113%. Also, the viability at 24 h, 14 µM in series [4] (H14 14 μM) was found to be 119%. The “toxicity for normal hepatocytes (in words)” value in series [5] is “not toxic”.

What is called EC50 is the concentration at which the effect is half-maximal. Low readings indicate higher potency in that assay, high ones lower potency in that assay. In general, viability refers to a read-out of living cells in per cent, often relative to untreated cells.
